Data published in ChEMBL document CHEMBL4024706 (Eur J Med Chem, 2017).
Calls of active or inactive are those of the source. The rule behind the calls is not given here.

Tests used:
[1] = biological target: T1, Tyrosine-protein kinase BTK (Homo sapiens, UniProt Q06187); assay: Inhibition of full length recombinant human N-terminal His tagged […] expressed in baculovirus infected Sf9 insect cells using poly (Glu,Tyr)4:1 as substrate pretreated for 60 mins followed by substrate addition after 1 hr by ADP-Glo luminescence assay
[2] = biological target: T2, Tyrosine-protein kinase JAK3 (Homo sapiens, UniProt P52333); assay: Inhibition of recombinant human N-terminal GST-tagged JAK3 (781 to end residues) expressed in baculovirus infected Sf9 insect cells using poly (Glu,Tyr)4:1 as substrate pretreated for 60 mins followed by substrate addition after 1 hr by ADP-Glo luminescence assay
T2 sequence (P52333 whole entry): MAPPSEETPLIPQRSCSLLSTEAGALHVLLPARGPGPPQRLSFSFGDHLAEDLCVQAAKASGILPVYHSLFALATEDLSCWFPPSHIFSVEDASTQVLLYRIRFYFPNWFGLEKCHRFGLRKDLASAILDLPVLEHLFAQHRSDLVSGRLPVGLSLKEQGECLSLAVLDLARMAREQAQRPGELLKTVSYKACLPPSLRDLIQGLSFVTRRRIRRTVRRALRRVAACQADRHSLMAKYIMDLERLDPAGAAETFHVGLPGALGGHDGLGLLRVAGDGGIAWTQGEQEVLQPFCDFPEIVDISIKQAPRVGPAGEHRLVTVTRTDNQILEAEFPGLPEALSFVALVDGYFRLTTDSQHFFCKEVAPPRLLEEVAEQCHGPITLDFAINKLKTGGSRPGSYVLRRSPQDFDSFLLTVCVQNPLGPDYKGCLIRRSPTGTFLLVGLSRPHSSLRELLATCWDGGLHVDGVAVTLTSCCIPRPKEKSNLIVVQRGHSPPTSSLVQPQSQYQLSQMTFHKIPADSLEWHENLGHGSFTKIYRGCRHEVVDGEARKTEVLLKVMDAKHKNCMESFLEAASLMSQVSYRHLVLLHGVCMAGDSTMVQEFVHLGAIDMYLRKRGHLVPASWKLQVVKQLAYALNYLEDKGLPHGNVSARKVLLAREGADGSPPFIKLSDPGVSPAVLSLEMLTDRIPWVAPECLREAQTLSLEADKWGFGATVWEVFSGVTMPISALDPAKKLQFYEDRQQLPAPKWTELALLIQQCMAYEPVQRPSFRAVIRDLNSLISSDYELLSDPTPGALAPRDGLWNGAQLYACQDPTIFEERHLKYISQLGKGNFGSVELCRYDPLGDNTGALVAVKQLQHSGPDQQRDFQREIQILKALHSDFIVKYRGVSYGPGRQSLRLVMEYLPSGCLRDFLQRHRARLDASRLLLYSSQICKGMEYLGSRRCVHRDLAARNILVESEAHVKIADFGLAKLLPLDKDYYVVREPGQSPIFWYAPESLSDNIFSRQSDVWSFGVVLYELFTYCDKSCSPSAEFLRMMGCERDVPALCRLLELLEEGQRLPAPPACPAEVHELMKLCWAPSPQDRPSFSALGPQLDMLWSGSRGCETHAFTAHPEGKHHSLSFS

[3] = biological target: Epidermal growth factor receptor (Homo sapiens, UniProt P00533); assay: Inhibition of recombinant human N-terminal GST-tagged wild-type EGFR (695 to end residues) expressed in baculovirus infected Sf9 insect cells using poly (Glu,Tyr)4:1 as substrate pretreated for 60 mins followed by substrate addition after 1 hr by ADP-Glo luminescence assay
[4] = biological target: T1, Tyrosine-protein kinase BTK; assay: Reversible inhibition of full length recombinant human N-terminal His tagged […] expressed in baculovirus infected Sf9 insect cells using poly (Glu,Tyr)4:1 as substrate pretreated for 2 to 60 mins followed by substrate addition after 1 hr by ADP-Glo luminescence assay
[5] = tested on: SU-DHL-2; assay: Growth inhibition of human SU-DHL-2 cells; type: functional; conditions: Homo sapiens, SU-DHL-2
[6] = tested on: MV4-11; assay: Growth inhibition of human MV411 cells; type: functional; conditions: Homo sapiens, MV4-11
[7] = tested on: U2932; assay: Growth inhibition of human U2932 cells; type: functional; conditions: Homo sapiens, U2932
[8] = tested on: Ramos; assay: Growth inhibition of human Ramos cells; type: functional; conditions: Homo sapiens, Ramos
[9] = tested on: OCI-AML-3; assay: Growth inhibition of human OCI-AML3 cells; type: functional; conditions: Homo sapiens, OCI-AML-3
[10] = tested on: Pfeiffer; assay: Growth inhibition of human Pfeiffer cells; type: functional; conditions: Homo sapiens, Pfeiffer
[11] = tested on: U-937; assay: Growth inhibition of human U937 cells; type: functional; conditions: Homo sapiens, U-937
[12] = tested on: NB-4; assay: Growth inhibition of human NB4 cells; type: functional; conditions: Homo sapiens, NB-4
[13] = tested on: SKM-1; assay: Growth inhibition of human SKM1 cells; type: functional; conditions: Homo sapiens, SKM-1
[14] = Growth inhibition of human M07e cells; type: functional; conditions: Homo sapiens, M-07e
[15] = tested on: PBMC; assay: Cytotoxicity against PBMC (unknwon origin); type: cell-based
[16] = AUC (0 to t) in Sprague-Dawley rat at 1 mg/kg, iv by LC-MS/MS method; type: ADME, organism-based; conditions: in vivo
[17] = AUC (0 to t) in Sprague-Dawley rat at 10 mg/kg, po by LC-MS/MS method; type: ADME, organism-based; conditions: in vivo
[18] = AUC (0 to infinity) in Sprague-Dawley rat at 1 mg/kg, iv by LC-MS/MS method; type: ADME, organism-based; parameters: dose 1 mg/kg, route intravenous, time infinity; conditions: in vivo
[19] = AUC (0 to infinity) in Sprague-Dawley rat at 10 mg/kg, po by LC-MS/MS method; type: ADME, organism-based; parameters: dose 10 mg/kg, route oral, time infinity; conditions: in vivo
[20] = MRT (0 to t) in Sprague-Dawley rat at 1 mg/kg, iv by LC-MS/MS method; type: ADME, organism-based; conditions: in vivo
[21] = MRT (0 to t) in Sprague-Dawley rat at 10 mg/kg, po by LC-MS/MS method; type: ADME, organism-based; conditions: in vivo
[22] = Elimination half-life in Sprague-Dawley rat at 1 mg/kg, iv by LC-MS/MS method; type: ADME, organism-based; conditions: in vivo, read-out: beta t1/2 (converted)
[23] = Elimination half-life in Sprague-Dawley rat at 10 mg/kg, po by LC-MS/MS method; type: ADME, organism-based; conditions: in vivo, read-out: beta t1/2 (converted)
[24] = Tmax in Sprague-Dawley rat at 1 mg/kg, iv by LC-MS/MS method; type: ADME, organism-based; conditions: in vivo
[25] = Tmax in Sprague-Dawley rat at 10 mg/kg, po by LC-MS/MS method; type: ADME, organism-based; conditions: in vivo
[26] = Cmax in Sprague-Dawley rat at 1 mg/kg, iv by LC-MS/MS method; type: ADME, organism-based; parameters: dose 1 mg/kg, route intravenous; conditions: in vivo
[27] = Cmax in Sprague-Dawley rat at 10 mg/kg, po by LC-MS/MS method; type: ADME, organism-based; parameters: dose 10 mg/kg, route oral; conditions: in vivo
[28] = Oral bioavailability in Sprague-Dawley rat at 10 mg/kg by LC-MS/MS method; type: ADME, organism-based; conditions: in vivo
[29] = biological target: T1, Tyrosine-protein kinase BTK
[30] = biological target: T1, Tyrosine-protein kinase BTK; assay: Irreversible inhibition of recombinant full length wild-type 3'-FLAG-tagged BTK (unknown origin) expressed in HEK293T cells assessed as reduction in Y223 phosphorylation measured after 4 hrs by Western blot method; type: cell-based
[31] = biological target: Tyrosine-protein kinase BTK (Homo sapiens, UniProt Q06187, C481S); assay: Irreversible inhibition of recombinant full length 3'-FLAG-tagged BTK C481S mutant (unknown origin) expressed in HEK293T cells assessed as reduction in Y223 phosphorylation measured after 4 hrs by Western blot method; type: cell-based
[32] = tested on: Pfeiffer; assay: Cell cycle arrest in human Pfeiffer cells assessed as increase in accumulation at G0/G1 phase at 10 uM after 48 hrs by propidium iodide/RNase staining based flow cytometric method; type: functional
[33] = tested on: U2932; assay: Cell cycle arrest in human U2932 cells assessed as increase in accumulation at G0/G1 phase at 10 uM after 48 hrs by propidium iodide/RNase staining based flow cytometric method; type: functional

T1 sequence (Q06187 whole entry): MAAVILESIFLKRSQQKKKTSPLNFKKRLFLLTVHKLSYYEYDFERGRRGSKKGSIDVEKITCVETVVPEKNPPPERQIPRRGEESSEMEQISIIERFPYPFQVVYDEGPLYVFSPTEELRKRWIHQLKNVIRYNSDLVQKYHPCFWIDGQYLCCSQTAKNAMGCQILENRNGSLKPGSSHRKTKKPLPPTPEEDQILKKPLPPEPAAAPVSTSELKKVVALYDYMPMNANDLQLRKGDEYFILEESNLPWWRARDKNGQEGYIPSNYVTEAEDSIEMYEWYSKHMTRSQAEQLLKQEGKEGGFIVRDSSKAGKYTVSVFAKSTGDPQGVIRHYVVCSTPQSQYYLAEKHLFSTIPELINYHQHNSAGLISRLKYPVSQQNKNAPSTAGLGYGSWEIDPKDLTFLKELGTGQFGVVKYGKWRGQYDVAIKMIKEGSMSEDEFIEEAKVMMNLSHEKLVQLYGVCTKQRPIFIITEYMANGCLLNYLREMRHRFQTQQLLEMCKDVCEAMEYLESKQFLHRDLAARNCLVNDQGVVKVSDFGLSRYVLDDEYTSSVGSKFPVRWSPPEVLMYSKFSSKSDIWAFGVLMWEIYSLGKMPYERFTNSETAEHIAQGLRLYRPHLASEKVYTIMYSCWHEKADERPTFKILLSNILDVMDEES
Epidermal growth factor receptor, sequence (P00533 whole entry): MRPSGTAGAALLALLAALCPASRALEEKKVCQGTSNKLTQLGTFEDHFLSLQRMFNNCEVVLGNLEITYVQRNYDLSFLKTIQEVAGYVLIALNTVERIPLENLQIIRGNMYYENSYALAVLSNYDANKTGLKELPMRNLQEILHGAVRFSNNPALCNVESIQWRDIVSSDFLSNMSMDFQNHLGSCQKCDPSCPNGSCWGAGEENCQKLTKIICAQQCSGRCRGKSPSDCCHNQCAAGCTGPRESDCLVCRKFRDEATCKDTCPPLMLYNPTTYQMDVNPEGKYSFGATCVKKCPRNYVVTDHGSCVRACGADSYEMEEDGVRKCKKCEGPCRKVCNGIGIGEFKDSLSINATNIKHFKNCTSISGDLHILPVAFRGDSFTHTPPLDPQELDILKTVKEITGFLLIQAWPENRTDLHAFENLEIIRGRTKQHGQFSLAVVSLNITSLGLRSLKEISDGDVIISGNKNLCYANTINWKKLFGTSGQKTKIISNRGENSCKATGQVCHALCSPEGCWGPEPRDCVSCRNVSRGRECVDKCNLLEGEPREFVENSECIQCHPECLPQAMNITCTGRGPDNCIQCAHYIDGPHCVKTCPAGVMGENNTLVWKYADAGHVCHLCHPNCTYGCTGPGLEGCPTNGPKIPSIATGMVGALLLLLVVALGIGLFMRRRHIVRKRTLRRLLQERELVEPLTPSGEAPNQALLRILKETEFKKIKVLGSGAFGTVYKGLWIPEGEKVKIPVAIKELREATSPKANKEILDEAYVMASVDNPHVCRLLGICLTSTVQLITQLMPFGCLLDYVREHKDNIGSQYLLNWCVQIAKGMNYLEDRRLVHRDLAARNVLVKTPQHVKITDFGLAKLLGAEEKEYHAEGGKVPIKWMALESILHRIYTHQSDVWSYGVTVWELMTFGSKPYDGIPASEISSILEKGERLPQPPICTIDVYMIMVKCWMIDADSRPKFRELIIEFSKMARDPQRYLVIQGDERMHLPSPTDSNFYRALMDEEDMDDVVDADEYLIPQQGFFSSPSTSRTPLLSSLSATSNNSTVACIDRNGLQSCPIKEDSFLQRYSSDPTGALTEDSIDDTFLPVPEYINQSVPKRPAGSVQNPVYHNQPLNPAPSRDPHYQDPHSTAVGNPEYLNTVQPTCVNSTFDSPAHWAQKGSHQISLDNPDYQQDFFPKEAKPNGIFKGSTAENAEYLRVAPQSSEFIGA
Tyrosine-protein kinase BTK (Homo sapiens, UniProt Q06187, C481S), sequence (Q06187 2-659 C481S limits assumed): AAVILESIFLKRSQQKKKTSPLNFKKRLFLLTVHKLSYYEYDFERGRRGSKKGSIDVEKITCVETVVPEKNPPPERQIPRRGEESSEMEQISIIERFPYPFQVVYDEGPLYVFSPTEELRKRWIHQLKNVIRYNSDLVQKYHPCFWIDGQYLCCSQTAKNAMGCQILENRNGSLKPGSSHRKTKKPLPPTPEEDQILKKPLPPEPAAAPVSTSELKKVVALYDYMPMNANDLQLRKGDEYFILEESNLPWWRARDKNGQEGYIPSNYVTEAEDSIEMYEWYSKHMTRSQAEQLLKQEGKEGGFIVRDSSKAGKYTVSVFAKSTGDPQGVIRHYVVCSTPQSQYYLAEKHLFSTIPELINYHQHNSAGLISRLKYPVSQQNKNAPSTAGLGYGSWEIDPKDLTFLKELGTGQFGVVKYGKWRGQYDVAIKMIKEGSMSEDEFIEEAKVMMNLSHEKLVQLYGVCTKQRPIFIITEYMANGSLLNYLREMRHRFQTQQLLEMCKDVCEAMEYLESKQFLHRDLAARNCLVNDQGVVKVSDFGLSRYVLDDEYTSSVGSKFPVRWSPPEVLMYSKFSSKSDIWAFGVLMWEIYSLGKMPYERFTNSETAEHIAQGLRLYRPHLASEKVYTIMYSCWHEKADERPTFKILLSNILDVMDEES

IC50 [1] | IC50 [2] | IC50 [3] | Ki [4] | GI50 [5] | GI50 [6] | GI50 [8] | GI50 [9] | GI50 [11] | GI50 [13] | AUC(0-t) [16] | AUC(0-t) [17] | AUC(0-inf) [18] | AUC(0-inf) [19] | MRT last [20] | SMILES | GI50 [7] | GI50 [10] | GI50 [12] | GI50 [14] | Activity [15] | further results
5.8 nM | 2010 nM | 5880 nM | 113 nM | 2600 nM | 1900 nM | 2100 nM | 2600 nM | 2600 nM | 1000 nM | 317 ng·h/mL | 151 ng·h/mL | 317 ng·h/mL | 291 ng·h/mL | 9.6 min | C=CC(=O)Nc1cc(Nc2cc(-c3cccc(NC(=O)c4ccc(N(C)C)cc4)c3C)cn(C)c2=O)ccc1C(=O)N1CCOCC1 | 6900 nM | 9000 nM | 1900 nM | 3200 nM | Non-Toxic | MRT last [21]: 203 min; half-life [22]: 14.4 min; half-life [23]: 472 min; Tmax [24]: 1.02 min; Tmax [25]: 4.98 min; Cmax [26]: 2440 ng/mL; Cmax [27]: 144 ng/mL; bioavailability [28]: 4.76%; Kinact [29]: 0.33 min⁻¹
163 nM |  |  |  | > 10000 nM | 4800 nM | 4600 nM | 9500 nM | > 10000 nM | > 10000 nM |  |  |  |  |  | CCC(=O)Nc1cc(Nc2cc(-c3cccc(NC(=O)c4ccc(C(C)(C)C)cc4)c3C)cn(C)c2=O)ccc1C(=O)N1CCOCC1 | > 10000 nM | > 10000 nM | > 10000 nM | > 10000 nM |  | EC50 [30]: > 100 nM; EC50 [31]: > 100 nM; Activity [32]: inactive; Activity [33]: inactive
16.5 nM | 1030 nM | 6860 nM | 6 nM | 1800 nM | 2200 nM | 1200 nM | 2300 nM | 1600 nM | 2800 nM | 1560 ng·h/mL | 1790 ng·h/mL | 1560 ng·h/mL | 1900 ng·h/mL | 26.5 min | C=CC(=O)Nc1cc(Nc2cc(-c3cccc(NC(=O)c4cc5c(s4)CCCC5)c3C)cn(C)c2=O)ccc1C(=O)N1CCOCC1 | 2300 nM | 3500 nM | 2400 nM | 2800 nM | Non-Toxic | MRT last [21]: 141 min; half-life [22]: 36.5 min; half-life [23]: 232 min; Tmax [24]: 1.02 min; Tmax [25]: 90 min; Cmax [26]: 7620 ng/mL; Cmax [27]: 1120 ng/mL; bioavailability [28]: 11.5%; Kinact [29]: 0.05 min⁻¹
